Measured values published in US6770597B2, “Benzohydrazide derivatives as herbicides and desiccant compositions containing them” (Ishihara Sangyo Kaisha, Ltd., priority 2002, dated 2004).

Key:
Format in all cases: in vivo
[1] = test system: wheat (Triticum aestivum L.); assay: Greenhouse herbicide screen, pre-emerge application, crop damage rating; conditions: PRE emergent, 14 days after application, rating scale 0-100
In short: (§1)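 Each pot received a simulated field application of test compound in acetone at 15–1000 g ai/ha. At 14 days, plants were rated from 0 (no damage) through 100 (all plants dead).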

[2] = test system: field corn (Zea mays L., var. Dekalb 535, CORN); assay: as above; conditions: PRE emergent, 14 days after application, rating scale 0-100
In short: as §1

[3] = test system: upland rice (Oryza sp., var.Cocodrie, RICE); assay: as above; conditions: PRE emergent, 14 days after application, rating scale 0-100
In short: as §1

[4] = test system: soybean (Glycine max L., var. Pella 86, SOY); assay: as above; conditions: PRE emergent, 14 days after application, rating scale 0-100
In short: as §1

[5] = test system: johnsongrass (Sorghum halepense, SORHA); assay: Greenhouse herbicide screen, pre-emerge application, phytotoxicity rating; conditions: PRE emergent, 14 days after application, rating scale 0-100
In short: as §1

[6] = test system: cocklebur (Xanthium strumarium, XANST); assay: as above; conditions: PRE emergent, 14 days after application, rating scale 0-100
In short: as §1

[7] = test system: lambsquarters (Chenopodium album, CHEAL); assay: as above; conditions: PRE emergent, 14 days after application, rating scale 0-100
In short: as §1

[8] = test system: redroot pigweed (Amaranthus retrofiexus, AMARE); assay: as above; conditions: PRE emergent, 14 days after application, rating scale 0-100
In short: as §1

[9] = test system: large crabgrass (Digitaria sanguinalis, DIGSA); assay: as above; conditions: PRE emergent, 14 days after application, rating scale 0-100
In short: as §1

[10] = test system: common ragweed (Ambrosia artemisiifolia L., AMBEL); assay: as above; conditions: PRE emergent, 14 days after application, rating scale 0-100
In short: as §1

[11] = test system: ivyleaf morningglory (Ipomoea hederacea, IPOHE); assay: as above; conditions: PRE emergent, 14 days after application, rating scale 0-100
In short: as §1

[12] = test system: barnyardgrass (Echinochloa crus-galli, ECHCG); assay: as above; conditions: PRE emergent, 14 days after application, rating scale 0-100
In short: as §1

[13] = test system: velvetleaf (Abutilon theophrasti, ABUTH); assay: as above; conditions: PRE emergent, 14 days after application, rating scale 0-100
In short: as §1

[14] = test system: green foxtail (Setaria viridis, SETVI); assay: as above; conditions: PRE emergent, 14 days after application, rating scale 0-100
In short: as §1

[15] = test system: sicklepod (Cassia obtusifolia, CASOB); assay: as above; conditions: PRE emergent, 14 days after application, rating scale 0-100
In short: as §1

[16] = test system: wheat (Triticum aestivum L.); assay: Greenhouse herbicide screen, post-emerge application, crop damage rating; conditions: POST emergent, 14 days after application, scale 0-100
In short: as §1

[17] = test system: field corn (Zea mays L., var. Dekalb 535, CORN); assay: as above; conditions: POST emergent, 14 days after application, scale 0-100
In short: as §1

[18] = test system: upland rice (Oryza sp., var.Cocodrie, RICE); assay: as above; conditions: POST emergent, 14 days after application, scale 0-100
In short: as §1

[19] = test system: soybean (Glycine max L., var. Pella 86, SOY); assay: as above; conditions: POST emergent, 14 days after application, scale 0-100
In short: as §1

[20] = test system: johnsongrass (Sorghum halepense, SORHA); assay: Greenhouse herbicide screen, post-emerge application, phytotoxicity rating; conditions: POST emergent, 14 days after application, scale 0-100
In short: as §1

[21] = test system: cocklebur (Xanthium strumarium, XANST); assay: as above; conditions: POST emergent, 14 days after application, scale 0-100
In short: as §1

[22] = test system: lambsquarters (Chenopodium album, CHEAL); assay: as above; conditions: POST emergent, 14 days after application, scale 0-100
In short: as §1

[23] = test system: redroot pigweed (Amaranthus retrofiexus, AMARE); assay: as above; conditions: POST emergent, 14 days after application
In short: as §1

[24] = test system: large crabgrass (Digitaria sanguinalis, DIGSA); assay: as above; conditions: POST emergent, 14 days after application, scale 0-100
In short: as §1

[25] = test system: common ragweed (Ambrosia artemisiifolia L., AMBEL); assay: as above; conditions: POST emergent, 14 days after application, scale 0-100
In short: as §1

[26] = test system: ivyleaf morningglory (Ipomoea hederacea, IPOHE); assay: as above; conditions: POST emergent, 14 days after application, scale 0-100
In short: as §1

[27] = test system: barnyardgrass (Echinochloa crus-galli, ECHCG); assay: as above; conditions: POST emergent, 14 days after application, scale 0-100
In short: as §1

[28] = test system: velvetleaf (Abutilon theophrasti, ABUTH); assay: as above; conditions: POST emergent, 14 days after application, scale 0-100
In short: as §1

[29] = test system: green foxtail (Setaria viridis, SETVI); assay: as above; conditions: POST emergent, 14 days after application, scale 0-100
In short: as §1

[30] = test system: sicklepod (Cassia obtusifolia, CASOB); assay: as above; conditions: POST emergent, 14 days after application, scale 0-100
In short: as §1

Cn1c(C(F)(F)F)cc(=O)n(-c2cc(C(=O)NNC(=O)OC(C)(C)C)c(Cl)cc2F)c1=O [Compound 1-24, 2-chloro-5-(3,6-dihydro-3-methyl-2,6-dioxo-4-(trifluoromethyl)-1(2H)-pyrimidinyl)-4-fluoro-benzoic Acid, 2-(1,1-dimethylethyloxy)carbonyl Hydrazide]
crop damage rating WHEAT ([1]; 63 g ai/ha): 20 | crop damage rating WHEAT ([1]; 250 g ai/ha): 60 | crop damage rating CORN ([2]; 63 g ai/ha): 0 | crop damage rating CORN ([2]; 250 g ai/ha): 100 | crop damage rating RICE ([3]; 63 g ai/ha): 5 | crop damage rating RICE ([3]; 250 g ai/ha): 30 | crop damage rating SOY ([4]; 63 g ai/ha): 50 | crop damage rating SOY ([4]; 250 g ai/ha): 100 | phytotoxicity rating SORHA ([5]; 63 g ai/ha): 0 | phytotoxicity rating SORHA ([5]; 250 g ai/ha): 40 | phytotoxicity rating XANST ([6]; 63 g ai/ha): 50 | phytotoxicity rating XANST ([6]; 250 g ai/ha): 90 | phytotoxicity rating CHEAL ([7]; 63 g ai/ha): 100 | phytotoxicity rating CHEAL ([7]; 250 g ai/ha): 100 | phytotoxicity rating AMARE ([8]; 63 g ai/ha): 80 | phytotoxicity rating AMARE ([8]; 250 g ai/ha): 99 | phytotoxicity rating DIGSA ([9]; 63 g ai/ha): 0 | phytotoxicity rating DIGSA ([9]; 250 g ai/ha): 40 | phytotoxicity rating AMBEL ([10]; 63 g ai/ha): 50 | phytotoxicity rating AMBEL ([10]; 250 g ai/ha): 75 | phytotoxicity rating IPOHE ([11]; 63 g ai/ha): 100 | phytotoxicity rating IPOHE ([11]; 250 g ai/ha): 100 | phytotoxicity rating ECHCG ([12]; 63 g ai/ha): 0 | phytotoxicity rating ECHCG ([12]; 250 g ai/ha): 50 | phytotoxicity rating ABUTH ([13]; 63 g ai/ha): 98 | phytotoxicity rating ABUTH ([13]; 250 g ai/ha): 99 | phytotoxicity rating SETVI ([14]; 63 g ai/ha): 10 | phytotoxicity rating SETVI ([14]; 250 g ai/ha): 45 | phytotoxicity rating CASOB ([15]; 63 g ai/ha): 50 | phytotoxicity rating CASOB ([15]; 250 g ai/ha): 95 | crop damage rating WHEAT ([16]; 63 g ai/ha): 15 | crop damage rating WHEAT ([16]; 250 g ai/ha): 60 | crop damage rating CORN ([17]; 63 g ai/ha): 90 | crop damage rating CORN ([17]; 250 g ai/ha): 95 | crop damage rating RICE ([18]; 63 g ai/ha): 60 | crop damage rating RICE ([18]; 250 g ai/ha): 65 | crop damage rating SOY ([19]; 63 g ai/ha): 8 | crop damage rating SOY ([19]; 250 g ai/ha): 15 | phytotoxicity rating SORHA ([20]; 63 g ai/ha): 35 | phytotoxicity rating SORHA ([20]; 250 g ai/ha): 55 | phytotoxicity rating XANST ([21]; 63 g ai/ha): 100 | phytotoxicity rating XANST ([21]; 250 g ai/ha): 100 | phytotoxicity rating CHEAL ([22]; 63 g ai/ha): 100 | phytotoxicity rating CHEAL ([22]; 250 g ai/ha): 100 | phytotoxicity rating AMARE ([23]; 63 g ai/ha, scale 0-100 (0 no damage, 100 complete death)): 100 | phytotoxicity rating AMARE ([23]; 250 g ai/ha, scale 0-100): 100 | phytotoxicity rating DIGSA ([24]; 63 g ai/ha): 20 | phytotoxicity rating DIGSA ([24]; 250 g ai/ha): 35 | phytotoxicity rating AMBEL ([25]; 63 g ai/ha): 100 | phytotoxicity rating AMBEL ([25]; 250 g ai/ha): 100 | phytotoxicity rating IPOHE ([26]; 63 g ai/ha): 100 | phytotoxicity rating IPOHE ([26]; 250 g ai/ha): 100 | phytotoxicity rating ECHCO ([27]; 63 g ai/ha): 35 | phytotoxicity rating ECHCO ([27]; 250 g ai/ha): 50 | phytotoxicity rating ABUTH ([28]; 63 g ai/ha): 100 | phytotoxicity rating ABUTH ([28]; 250 g ai/ha): 100 | phytotoxicity rating SETVI ([29]; 63 g ai/ha): 35 | phytotoxicity rating SETVI ([29]; 250 g ai/ha): 60 | phytotoxicity rating CASOB ([30]; 63 g ai/ha): 75 | phytotoxicity rating CASOB ([30]; 250 g ai/ha): 95
